Earlier results in US7988985B2, “Pest repellent compositions and methods” (priority 2008, dated 2011).

Assays:
biting-insect = details: Low-strength formulations containing 12.5% DEET
[1] = system: blackflies (Simulium spp.); details: High-strength formulations containing up to 100% DEET
[2] = system: mosquitoes (e.g., Anopheles, Culex pipiens, and Aeges aegypti); details: High-strength formulations containing up to 100% DEET, 95%+ effective

Structure (SMILES): CCN(CC)C(=O)c1cccc(C)c1 [DEET, N,N,-diethyl-m-toluamide]
- effective (repellent effectiveness) (biting-insect): 60-75%
- effective (repellent effectiveness) [1]: ≥ 95%
- duration of effectiveness ([1]; 95%+ effective): over 4 hours
- duration of effectiveness [2]: 10 to 12 h
